Test results as given in paper PMC2760094 (Journal of medicinal chemistry, 2009).

Legend:
[1] = test system: Melanoma (A 375, B16-F1) and Prostate Cancer Cells (DU145, PC-3, LNCaP, PPC-1); assay: Antiproliferative activity over melanoma and prostate cancer cell lines; type: cell-based, human and mouse
[2] = Cell cycle progression; type: cell-based; details: unpublished data
[3] = Water solubility; type: physicochemical
[4] = test system: B16-F1 cells; assay: SRB cytotoxicity assay, B16-F1 melanoma; type: cell-based, mouse; details: read-out: IC50 ± SEM (μM) B16-F1, Table 2, 48 h
[5] = test system: A375 cells; assay: SRB cytotoxicity assay, A375 melanoma; type: cell-based, human; details: read-out: IC50 ± SEM (μM) A375, Table 2, 48 h
[6] = test system: DU 145 cells; assay: SRB cytotoxicity assay, DU 145 prostate cancer; type: cell-based, human; details: read-out: IC50 ± SEM (μM) DU 145, Table 2, 96 h
[7] = test system: LNCaP cells; assay: SRB cytotoxicity assay, LNCaP prostate cancer; type: cell-based, human; details: read-out: IC50 ± SEM (μM) LNCaP, Table 2, 96 h
[8] = test system: PPC-1 cells; assay: SRB cytotoxicity assay, PPC-1 prostate cancer; type: cell-based, human; details: read-out: IC50 ± SEM (μM) PPC-1, Table 2, 96 h
[9] = test system: CCRF-CEM (Leukemia); assay: NCI-60 human tumor cell line screen, CCRF-CEM; type: cell-based; details: read-out: IC50 NCI-60, CCRF-CEM, lowest of the NCI-60 range

Row | Compound | antiproliferative activity (in words) [1] | other results
1 | COc1ccccc1C(=O)c1csc(-c2ccccc2)n1 [8d, (2-Methoxyphenyl)(2-phenylthiazol-4-yl)-methanone] | weak activity against a certain cell lines | –
2 | COc1cc(NC(=O)C2CSC(c3ccccc3)=N2)cc(OC)c1OC (stereo in doubt) [4b, (4R)-2-Phenyl-N-(3,4,5-trimethoxyphenyl)-4,5-dihydrothiazole-4-carboxamide] | – | IC50 ([1]; read-out: IC50 over melanoma and prostate cancer cell lines): 3400 to 38300 nM
3 | COC(=O)c1ccc(-c2nc(C(=O)c3cc(OC)c(OC)c(OC)c3)cs2)cc1 [8s, Methyl-4-[4-(3,4,5-trimethoxybenzoyl)-thiazol-2-yl]-benzoate] | total loss of potency | –
4 | COc1cc(C(=O)c2csc(-c3ccccc3)n2)cc(OC)c1OC [8f, (2-Phenyl-thiazol-4-yl)-(3,4,5-trimethoxy-phenyl)-methanone] | – | cell cycle effect (in words) [2]: significant increase in G2/M phase arrest
5 | COc1cc(OC)cc(C(=O)c2csc(-c3ccccc3)n2)c1 [8g, (3,5-Dimethoxyphenyl)(2-phenylthiazol-4-yl)-methanone] | – | fold lower average cytotoxicity than 8f ([1]; against six different cell lines, relative to 8f): 6 fold
6 | O=C(c1ccccn1)c1csc(-c2ccccc2)n1 [8i, (2-Phenylthiazol-4-yl)-(pyridin-2-yl)-methanone] | total loss of the anti-cancer activity | –
7 | COc1cc(C(=O)c2csc(-c3ccc(C#N)cc3)n2)cc(OC)c1OC [8q, 4-[4-(3,4,5-Trimethoxybenzoyl)-thiazol-2-yl]-benzonitrile] | comparable antiproliferative activity | –
8 | COc1cc(C(=O)c2csc(-c3ccc(C(=O)O)cc3)n2)cc(OC)c1OC [8r, 4-[4-(3,4,5-Trimethoxybenzoyl)-thiazol-2-yl]-benzoic acid] | total loss of the anti-cancer activity | –
9 | COc1cc(NC(=O)c2csc(-c3ccccc3)n2)cc(OC)c1OC [compound 5, 2-Phenyl-N-(3,4,5-trimethoxyphenyl)thiazole-4-carboxamide] | did not show any cytotoxicity against either cancer cell line tested | –
10 | O=C(c1cc(O)c(O)c(O)c1)c1csc(-c2ccccc2)n1 [compound 11, (2-Phenyl-thiazol-4-yl)-(3,4,5-trihydroxy-phenyl)-methanone] | complete loss of antiproliferative activity | water solubility (in words) [3]: water soluble
11 | COc1cc(C(=O)c2csc(-c3ccc([N+](=O)[O-])cc3)n2)cc(OC)c1OC [8p, [2-(4-Nitrophenyl)-thiazol-4-yl]-(3,4,5-trimethoxyphenyl)-methanone] | comparable antiproliferative activity | –
12 | COc1ccc(-c2nc(C(=O)c3cc(OC)c(OC)c(OC)c3)cs2)cc1OC [8o, [2-(3,4-Dimethoxyphenyl)-thiazol-4-yl]-(3,4,5-trimethoxyphenyl)-methanone] | comparable antiproliferative activity | –
13 | COc1cc(C(=O)c2cscn2)cc(OC)c1OC [compound 10, Thiazol-4-yl-(3,4,5-trimethoxy-phenyl)-methanone] | total loss of activity | –
14 | (2RS, 4R)-2-phenyl-thiazolidine-4-carboxylic acid hexadecylamide [ATCAA-1] | – | IC50 [4]: 2.2 ± 0.3 µM; IC50 [5]: 2.1 ± 0.2 µM; IC50 [6]: 1.7 ± 0.1 µM; IC50 [7]: 1 ± 0.1 µM; IC50 [8]: 0.4 ± 0.1 µM; IC50 [9]: 124 nM
15 | COc1cc(C(=O)c2csc(-c3ncccn3)n2)cc(OC)c1OC [8y, [2-(Pyrimidin-2-yl)-thiazol-4-yl]-(3,4,5-trimethoxyphenyl)-methanone] | kept partial activity against both cancer cells | –
16 | COc1cc(NC(=O)[C@@H]2CSC(c3ccccc3)N2)cc(OC)c1OC (mixture of isomers) [2a, (2RS, 4R)-2-Phenyl-N-(3,4,5-trimethoxyphenyl)thiazolidine-4-carboxamide] | the potency against both cancer cell lines was lost | –
17 | COc1cc(NC(=O)[C@@H]2CSC(c3cc(OC)c(OC)c(OC)c3)N2)cc(OC)c1OC (mixture of isomers) [2b, (2RS, 4R)-N,2-bis(3,4,5-trimethoxyphenyl)thiazolidine-4-carboxamide] | the potency against both cancer cell lines was lost | –
18 | COc1cc(C(=O)c2csc(-c3ccc(C(F)(F)F)cc3)n2)cc(OC)c1OC [8t, (2-(4-(Trifluoromethyl)-phenyl)-thiazol-4-yl)(3,4,5-trimethoxyphenyl)-methanone] | comparable antiproliferative activity | –
